The results in this text go back to patent publication US8252723B2, “Substituted 1-(3-pyridinyl)pyrazol-4-ylacetic acids, processes for their preparation and their use as herbicides and plant growth regulators” (Bayer CropScience AG, priority 2006, dated 2012).

For the experiment, the system named is summer wheat of the cultivar 'Triso'. Kind of experiment: Plant growth regulation test: culm stabilization of crop plants. It is filed as in vivo. Particulars: application rate of 30 to 300 g of active substance per hectare, treated at stage BBCH 31, culm length measured after ears had formed. The protocol:
With stirring, the compound of the formula (I) in question was, in the form of a water-dispersible powder, together with a surfactant (customary adjuvant at an application rate of 1 l/ha), mixed with water such that a homogenous spray liquor was formed, and applied at an application rate of 300 l of water/ha (converted).
Seeds of summer wheat of the cultivar ‘Triso’ were sown at a depth of 1 cm in plant pots and cultivated outdoors until treatment.
The plants were treated on a laboratory track sprayer with spray liquors of the test substances at macrostage 3 after having reached about 10% of the maximum longitudinal growth typical for the cultivar (stage BBCH 31) and, after the treatment, returned outdoors.
After the ears had formed, the length of the culms were measured. The culm stabilization was evaluated as a percentage of the untreated control.
With `COc1cccc(-c2c(CC(=O)O)c(C)nn2-c2cccnc2)n1` [Example 1-145], the “longitudinal growth (culm length) of summer wheat” value (shortened to “longitudinal growth (culm length)”) was “effectively shortened”.
With `COC(=O)Cc1c(C)nn(-c2cccnc2)c1-c1ccc(C(C)=O)cc1` [Example 2-121], the “longitudinal growth (culm length)” value was “effectively shortened”.
Take `Cc1ccncc1-n1ncc(CC(=O)O)c1-c1ccccc1` [Example 1-73]: the “longitudinal growth (culm length)” value was “effectively shortened”.
Take `Cc1ccc(-c2c(CC(=O)O)c(C)nn2-c2cnccc2C)cc1Cl` [Example 1-49]: the “longitudinal growth (culm length)” value is listed as “effectively shortened”.
Then `Cc1ccncc1-n1nc(C)c(CC(=O)O)c1-c1ccc(Cl)s1` [Example 1-55], with “effectively shortened”; and `COC(=O)Cc1c(C)nn(-c2cncc(C)c2)c1-c1ccc(Cl)cc1` [Example 2-51], with “effectively shortened”.
Take `C=C(Cl)COC(=O)Cc1c(C)nn(-c2cccnc2)c1-c1ccccn1` [Example 3-203]: the “longitudinal growth (culm length)” value was “effectively shortened”.
For the compound `COC(=O)Cc1c(C)nn(-c2cccnc2)c1-c1ccc(Cl)s1` [Example 2-60], the “longitudinal growth (culm length)” value is recorded as “effectively shortened”.
In the case of `Cc1ccc(-c2c(CC(=O)O)c(C)nn2-c2cccnc2)cc1` [Example 1-16], the “longitudinal growth (culm length)” value is recorded as “effectively shortened”.
Then `COC(=O)Cc1c(C)nn(-c2cccnc2)c1-c1ccsc1` [Example 2-63], with “effectively shortened”.
With `COC(=O)Cc1c(C)nn(-c2cccnc2)c1-c1sccc1C` [Example 2-58], the “longitudinal growth (culm length)” value is “effectively shortened”.
As for `Cc1ccncc1-n1nc(C)c(CC(=O)O)c1-c1ccc(Cl)cc1` [Example 1-25], the “longitudinal growth (culm length)” value is on record as “effectively shortened”.
For the compound `COC(=O)Cc1c(C)nn(-c2cccnc2)c1-c1cccnc1` [Example 2-125], the “longitudinal growth (culm length)” value is on record as “effectively shortened”.
`COC(=O)Cc1c(C)nn(-c2cccnc2)c1-c1cc(C)cs1` [Example 2-59]: the “longitudinal growth (culm length)” value is listed as “effectively shortened”.
In the case of `C/C=C/C(C)OC(=O)Cc1c(C)nn(-c2cccnc2)c1-c1ccccc1` (stereo not shown) [Example 3-160], the “longitudinal growth (culm length)” value is recorded as “effectively shortened”.
As for `Cc1nn(-c2cccnc2)c(-c2cccs2)c1CC(=O)O` [Example 1-57], the “longitudinal growth (culm length)” value is given as “effectively shortened”.
In the case of `Cc1nn(-c2cccnc2)c(-c2ccccc2)c1CC(=O)OCC1CCC1` [Example 3-168], the “longitudinal growth (culm length)” value is “effectively shortened”.
As for `O=C(O)Cc1cnn(-c2cccnc2)c1-c1ccccc1` [Example 1-72], the “longitudinal growth (culm length)” value was “effectively shortened”.
Consider `C#CCOC(=O)Cc1c(C)nn(-c2cccnc2)c1-c1ccc(Cl)cc1` [Example 3-55], for which the “longitudinal growth (culm length)” value is “effectively shortened”.
Then `COC(=O)Cc1c(C)nn(-c2cnccc2C)c1-c1cccc(Cl)c1` [Example 2-21], with “effectively shortened”.
To `COC(=O)Cc1c(-c2ccccc2)nn(-c2cccnc2)c1-c1ccccc1` [Example 2-1] belongs “effectively shortened”; to `Cc1nn(-c2cccnc2)c(-c2ccccc2Cl)c1CC(=O)O` [Example 1-31], “effectively shortened”.
On to `C=C(Cl)COC(=O)Cc1c(C)nn(-c2cccnc2)c1-c1ccc(OC)nc1` [Example 3-193], for which the “longitudinal growth (culm length)” value is recorded as “effectively shortened”.
For `Cc1ccncc1-n1nc(C)c(CC(=O)O)c1-c1ccccn1` [Example 1-132], the “longitudinal growth (culm length)” value is on record as “effectively shortened”.
On to `COc1ccncc1-n1nc(C)c(CC(=O)O)c1-c1ccc(Cl)cc1` [Example 1-35], for which the “longitudinal growth (culm length)” value was “effectively shortened”.
